According to paper PMC11714206, “Massively Parallel Screening of Toll/Interleukin‐1 Receptor (TIR)‐Derived Peptides Reveals Multiple Toll‐Like Receptors (TLRs)‐Targeting Immunomodulatory Peptides” (Advanced Science, 2024):
Values belong to the sequence of their own block, whether it stands above or below them.

Molecular target: T1, MyD88^TIR (Homo sapiens, UniProt Q99836)
T1 construct: MyD88 (residues 148–296); 6xHis; made in house; host or cells: E. coli BL21 (DE3)
Test: T‐Surf phage library (P8 and P3) selection against MyD88^TIR, four rounds, NGS read counts
Assay type: binding
Conditions: for P3_MyD88 Rank (after) / P3_MyD88 Rank (before): P3 library; for Population: 4th round of selection against MyD88 TIR, share of NGS reads; for P8_MyD88 Rank (after) / P8_MyD88 Rank (before): P8 library
How it was run: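 Read counts come from NGS of phage pools after the fourth selection round, barcoded by 20-cycle PCR and filtered for quality ≥30. Each round: phage incubated 1 h at RT on immobilised TIR protein (5 µg mL^−1, BSA-blocked), washed, HCl-eluted and amplified in E. coli TG1.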

[1] = selection against MyD88, rank after grouping
[2] = selection against MyD88, rank before grouping
[3] = 4R selection against MyD88, rank after grouping
[4] = 4R selection against MyD88, rank before grouping
[5] = selection against MyD88, rank by count after grouping
[6] = selection against MyD88, rank by count before grouping
[7] = selection against MyD88 TIR, rank by count after grouping
[8] = selection against MyD88 TIR, rank by count before grouping
[9] = P3_MyD88 pool: P3 T-Surf phage library
[10] = P3_MyD88: rank by count after grouping
[11] = P3_MyD88: rank by count before grouping
[12] = P8_MyD88: rank by count after grouping
[13] = P8_MyD88: rank by count before grouping
[14] = P8_MyD88 pool: P8 T-Surf phage library
[15] = P8_MyD88: rank by NGS read count after grouping
[16] = P8_MyD88: rank by NGS read count before grouping

T1 sequence (Q99836 148-296): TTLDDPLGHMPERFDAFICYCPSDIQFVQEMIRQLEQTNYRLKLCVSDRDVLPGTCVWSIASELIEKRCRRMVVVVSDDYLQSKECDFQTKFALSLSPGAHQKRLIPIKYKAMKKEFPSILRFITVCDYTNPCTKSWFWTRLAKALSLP

P3_MyD88 Rank (after) [1]: 495
P3_MyD88 Rank (before) [2]: 3071
Sequence: SEMRVVEDGSVSPLEM

P3_MyD88 Rank (after) [3]: 654
P3_MyD88 Rank (before) [4]: 3000
Sequence: SENMRPARGRWMNWC

P3_MyD88 Rank (after) [5]: 723
P3_MyD88 Rank (before) [6]: 2958
Sequence: SENYASSSWALTELVH

P3_MyD88 Rank (after) [3]: 673
P3_MyD88 Rank (before) [4]: 2999
Sequence: SENYATRPWAPDELVL

P3_MyD88 Rank (after) [7]: 214
P3_MyD88 Rank (before) [8]: 2961
Sequence: SENYATSAWALEELVL

P3_MyD88 Rank (after) [1]: 519
P3_MyD88 Rank (before) [2]: 2979
Sequence: SENYATSPWALDELLIAIEE

Population [9]: 0.00437%
Sequence: SENYATSPWALDELVP

P3_MyD88 Rank (after) [7]: 258
P3_MyD88 Rank (before) [8]: 1170
Sequence: SENYATSPWALDELVRIVEA

Rank (after) [10]: 423
Rank (before) [11]: 2984
Sequence: SENYATSPWALEKAGKL

Rank (after) [10]: 133
Rank (before) [11]: 734
Sequence: SENYATSPWALKERLP

P3_MyD88 Rank (after) [3]: 655
P3_MyD88 Rank (before) [4]: 2985
Sequence: SENYATSPWALMNWC

P3_MyD88 Rank (after) [7]: 278
P3_MyD88 Rank (before) [8]: 2986
Sequence: SENYATSPWALTELVH

P3_MyD88 Rank (after) [3]: 658
P3_MyD88 Rank (before) [4]: 2990
Sequence: SENYATSPWAPELLR

P3_MyD88 Rank (after) [1]: 541
P3_MyD88 Rank (before) [2]: 2992
Sequence: SENYATSPWRWMNWC

P3_MyD88 Rank (after) [1]: 496
P3_MyD88 Rank (before) [2]: 2998
Sequence: SENYATSTWAPDELVR

P3_MyD88 Rank (after) [5]: 712
P3_MyD88 Rank (before) [6]: 2957
Sequence: SENYVTSPCAVDELVP

Rank (after) [12]: 136
Rank (before) [13]: 147
Population [14]: 0.0112%
Sequence: SFSFPLDQLSYFLNLP

Rank (after) [12]: 126
Rank (before) [13]: 137
Population [14]: 0.0123%
Sequence: SFTDHLYAALVQAGIL

Population [9]: 0.00291%
Sequence: SGFREGLWRLLELSKK

P8_MyD88 Rank (after) [5]: 682
P8_MyD88 Rank (before) [6]: 1660
Sequence: SGQAVTEDKLGWLSNP

P8_MyD88 Rank (after) [7]: 201
P8_MyD88 Rank (before) [8]: 293
Sequence: SIATLLYDQLSWLDIH

P8_MyD88 Rank (after) [1]: 542
P8_MyD88 Rank (before) [2]: 3800
Sequence: SIWWILNELQEILNYQ

P8_MyD88 Rank (after) [1]: 541
P8_MyD88 Rank (before) [2]: 3759
Sequence: SLLYDHLRWLGIRAFL

P3_MyD88 Rank (after) [1]: 524
P3_MyD88 Rank (before) [2]: 3079
Sequence: SLRKNVVSNLLEEFKR

Rank (after) [10]: 480
Rank (before) [11]: 3075
Sequence: SLRQNLVSNLLEEFKR

P3_MyD88 Rank (after) [3]: 580
P3_MyD88 Rank (before) [4]: 3076
Sequence: SLRRNLVSNLIEEFIR

P8_MyD88 Rank (after) [7]: 217
P8_MyD88 Rank (before) [8]: 369
Sequence: SMMPSSDFWKELALAL

Rank (after) [12]: 97
Rank (before) [13]: 101
Population [14]: 0.0231%
Sequence: SMTPLSDFWKELALVL

Population [9]: 0.00408%
Sequence: SNFREGLWRLLELSKK

Rank (after) [10]: 438
Rank (before) [11]: 3282
Sequence: SNFREGLWRQQELSKK

P3_MyD88 Rank (after) [1]: 572
P3_MyD88 Rank (before) [2]: 3283
Sequence: SNFRKGLSRLLELSKK

Rank (after) [15]: 944
Rank (before) [16]: 3764
Sequence: SPLSYMWLDELVEIME

P8_MyD88 Rank (after) [1]: 503
P8_MyD88 Rank (before) [2]: 3761
Sequence: SPWALYELAMIIEAM

Rank (after) [12]: 185
Rank (before) [13]: 251
Sequence: SPWALYELVEILTAYK

Rank (after) [15]: 953
Rank (before) [16]: 1659
Sequence: SQRADCSWEWQKMLYP

Rank (after) [10]: 146
Rank (before) [11]: 3095
Sequence: SRDYASSPWALDELVL

P3_MyD88 Rank (after) [3]: 627
P3_MyD88 Rank (before) [4]: 3103
Sequence: SRDYATSPWALDELLR

P3_MyD88 Rank (after) [3]: 647
P3_MyD88 Rank (before) [4]: 3106
Sequence: SREYASCSWALTELVH

Rank (after) [10]: 156
Rank (before) [11]: 3107
Sequence: SRFREGLWPLLELSKK

P3_MyD88 Rank (after) [5]: 715
P3_MyD88 Rank (before) [6]: 3278
Sequence: SRFREGLWRLLKLSKK

P3_MyD88 Rank (after) [3]: 624
P3_MyD88 Rank (before) [4]: 3279
Sequence: SRLCVMCWKNCVLPN

Rank (after) [10]: 123
Rank (before) [11]: 3109
Sequence: SRYREGLWRLLELSKK

Rank (after) [12]: 399
Rank (before) [13]: 1289
Sequence: SSAWALNELVQIMKAW

P3_MyD88 Rank (after) [3]: 607
P3_MyD88 Rank (before) [4]: 3259
Sequence: SSCREGLWRLLELIKK

Rank (after) [10]: 402
Rank (before) [11]: 3260
Sequence: SSCREGLWRLLELSNK

P3_MyD88 Rank (after) [1]: 565
P3_MyD88 Rank (before) [2]: 3262
Sequence: SSCREGLWSLLELSKK

Population [9]: 0.00437%
Sequence: SSFCEGLWRLLELSKK

P3_MyD88 Rank (after) [5]: 737
P3_MyD88 Rank (before) [6]: 3250
Sequence: SSFHEGLWRMLELSKK

P3_MyD88 Rank (after) [1]: 534
P3_MyD88 Rank (before) [2]: 3122
Sequence: SSFLQGLWRLLELSKK

Rank (after) [10]: 399
Rank (before) [11]: 3123
Sequence: SSFLQHPWRLQKLSKK

Rank (after) [10]: 478
Rank (before) [11]: 3124
Sequence: SSFLQKLRRRLELSIV

P3_MyD88 Rank (after) [3]: 582
P3_MyD88 Rank (before) [4]: 3135
Sequence: SSFRDDLWRLLELSKK

Rank (after) [10]: 106
Rank (before) [11]: 1198
Sequence: SSFRDGLWRLLELSKT
